What all share (type): cell-based
One assay concerns the target T1, human TLR7 (Homo sapiens, UniProt Q9NYK1).
T1 sequence (Q9NYK1 27-1049): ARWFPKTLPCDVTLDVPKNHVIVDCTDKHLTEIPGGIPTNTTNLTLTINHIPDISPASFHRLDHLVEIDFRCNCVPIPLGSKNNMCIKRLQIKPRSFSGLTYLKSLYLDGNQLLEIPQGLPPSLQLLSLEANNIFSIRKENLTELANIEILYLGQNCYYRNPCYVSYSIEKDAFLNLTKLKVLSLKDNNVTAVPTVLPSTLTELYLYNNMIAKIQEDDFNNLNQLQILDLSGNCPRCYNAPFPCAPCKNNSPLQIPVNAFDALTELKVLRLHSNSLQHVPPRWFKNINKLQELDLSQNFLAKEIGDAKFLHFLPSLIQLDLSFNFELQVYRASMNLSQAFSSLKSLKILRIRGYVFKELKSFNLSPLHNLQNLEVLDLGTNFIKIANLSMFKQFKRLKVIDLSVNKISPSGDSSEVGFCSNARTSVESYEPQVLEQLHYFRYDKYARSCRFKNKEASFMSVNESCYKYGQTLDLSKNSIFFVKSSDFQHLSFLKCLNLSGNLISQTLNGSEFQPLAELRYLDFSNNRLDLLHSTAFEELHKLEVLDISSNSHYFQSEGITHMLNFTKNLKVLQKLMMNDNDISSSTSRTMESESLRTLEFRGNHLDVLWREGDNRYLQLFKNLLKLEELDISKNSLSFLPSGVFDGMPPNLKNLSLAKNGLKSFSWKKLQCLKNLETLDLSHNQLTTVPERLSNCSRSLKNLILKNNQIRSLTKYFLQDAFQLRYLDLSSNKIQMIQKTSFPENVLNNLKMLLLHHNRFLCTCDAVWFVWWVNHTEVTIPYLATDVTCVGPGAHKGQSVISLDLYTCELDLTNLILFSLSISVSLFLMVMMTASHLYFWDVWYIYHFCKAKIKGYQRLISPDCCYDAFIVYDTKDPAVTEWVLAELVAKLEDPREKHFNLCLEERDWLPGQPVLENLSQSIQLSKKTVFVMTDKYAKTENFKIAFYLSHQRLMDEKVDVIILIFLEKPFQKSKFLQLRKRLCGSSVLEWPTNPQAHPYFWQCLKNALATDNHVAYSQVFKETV
The assay is described as follows: TLR7 inhibition reporter assay (HEK-Blue cells, SEAP reporter). The note with it: HEK-Blue cells overexpressing human TLR7; stimulated with gardiquimod 7.5 μM; 22 hour incubation; SEAP readout. The procedure, abridged: (§1)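 HEK-Blue cells with an NF-κB/AP-1-driven SEAP reporter were pre-treated 30 min at room temperature with compound (0.05 nM–50 μM), then stimulated with gardiquimod 7.5 μM (TLR7), R848 15.9 μM (TLR8) or ODN2006 5 nM (TLR9). After 22 h at 37 °C, SEAP was read; % inhibition was referenced to agonist+DMSO and known-inhibitor wells.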
For orientation: In a reporter assay the amount or activity of a reporter protein is the signal.

The target in the next assay is T2, human TLR8 (Homo sapiens, UniProt Q9NR97).
T2 sequence (Q9NR97 27-1041): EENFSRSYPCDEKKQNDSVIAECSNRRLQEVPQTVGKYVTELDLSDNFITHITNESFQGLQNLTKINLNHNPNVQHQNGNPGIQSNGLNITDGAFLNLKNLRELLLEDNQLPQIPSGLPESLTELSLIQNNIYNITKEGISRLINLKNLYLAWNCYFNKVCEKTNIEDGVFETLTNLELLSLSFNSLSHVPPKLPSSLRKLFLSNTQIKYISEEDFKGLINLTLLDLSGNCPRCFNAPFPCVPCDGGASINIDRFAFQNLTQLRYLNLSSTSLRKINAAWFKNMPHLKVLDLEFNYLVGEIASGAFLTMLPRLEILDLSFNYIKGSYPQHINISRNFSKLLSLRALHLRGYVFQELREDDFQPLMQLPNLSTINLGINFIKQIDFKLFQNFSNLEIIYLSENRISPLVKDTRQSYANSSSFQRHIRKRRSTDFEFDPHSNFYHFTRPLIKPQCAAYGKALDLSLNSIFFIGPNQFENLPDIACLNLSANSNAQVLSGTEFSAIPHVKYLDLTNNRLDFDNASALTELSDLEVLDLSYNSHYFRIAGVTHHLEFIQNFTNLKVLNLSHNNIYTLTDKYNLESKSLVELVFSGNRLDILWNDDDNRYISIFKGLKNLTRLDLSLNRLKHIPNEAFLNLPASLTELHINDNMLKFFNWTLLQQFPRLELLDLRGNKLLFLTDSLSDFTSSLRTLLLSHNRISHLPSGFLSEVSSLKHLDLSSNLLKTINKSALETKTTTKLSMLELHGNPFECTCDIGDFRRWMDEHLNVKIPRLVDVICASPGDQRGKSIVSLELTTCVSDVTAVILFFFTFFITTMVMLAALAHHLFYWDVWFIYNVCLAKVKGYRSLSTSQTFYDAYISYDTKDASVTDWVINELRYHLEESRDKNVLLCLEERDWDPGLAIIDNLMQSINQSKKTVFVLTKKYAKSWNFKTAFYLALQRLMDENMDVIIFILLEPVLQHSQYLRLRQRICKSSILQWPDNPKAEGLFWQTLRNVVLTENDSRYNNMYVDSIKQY
Kind of assay: TLR8 inhibition reporter assay (HEK-Blue cells, SEAP reporter). The note with it: HEK-Blue cells overexpressing human TLR8; stimulated with R848 15.9 μM; 22 hour incubation; SEAP readout. The method, boiled down:
as §1

Another assay concerns the target T3, human TLR9 (Homo sapiens, UniProt Q9NR96).
T3 sequence (Q9NR96 26-1032): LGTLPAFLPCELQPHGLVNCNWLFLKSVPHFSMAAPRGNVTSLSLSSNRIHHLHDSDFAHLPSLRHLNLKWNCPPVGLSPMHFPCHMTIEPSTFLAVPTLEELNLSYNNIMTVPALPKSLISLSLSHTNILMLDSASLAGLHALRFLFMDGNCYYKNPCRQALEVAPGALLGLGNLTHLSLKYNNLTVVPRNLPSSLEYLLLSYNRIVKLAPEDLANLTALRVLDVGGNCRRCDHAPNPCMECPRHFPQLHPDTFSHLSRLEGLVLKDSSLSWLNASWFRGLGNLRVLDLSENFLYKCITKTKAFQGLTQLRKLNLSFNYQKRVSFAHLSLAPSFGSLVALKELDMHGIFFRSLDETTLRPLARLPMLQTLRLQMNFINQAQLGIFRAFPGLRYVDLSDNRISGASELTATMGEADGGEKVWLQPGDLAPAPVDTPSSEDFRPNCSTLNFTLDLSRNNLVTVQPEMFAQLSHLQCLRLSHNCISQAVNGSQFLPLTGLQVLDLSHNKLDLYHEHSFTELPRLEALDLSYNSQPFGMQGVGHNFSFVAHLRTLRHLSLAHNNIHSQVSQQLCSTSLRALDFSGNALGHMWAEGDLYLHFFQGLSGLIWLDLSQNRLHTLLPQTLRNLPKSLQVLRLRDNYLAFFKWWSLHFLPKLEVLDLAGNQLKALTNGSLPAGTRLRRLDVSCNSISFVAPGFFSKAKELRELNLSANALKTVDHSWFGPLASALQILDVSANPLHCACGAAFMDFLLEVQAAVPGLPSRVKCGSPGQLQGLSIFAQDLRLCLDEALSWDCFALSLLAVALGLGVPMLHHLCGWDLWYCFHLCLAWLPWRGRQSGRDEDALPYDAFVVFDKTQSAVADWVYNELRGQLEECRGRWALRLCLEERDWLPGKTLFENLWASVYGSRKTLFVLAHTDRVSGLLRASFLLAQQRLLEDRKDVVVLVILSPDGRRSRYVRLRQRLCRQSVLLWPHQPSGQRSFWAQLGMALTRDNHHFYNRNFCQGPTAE
The assay is described as follows: TLR9 inhibition reporter assay (HEK-Blue cells, SEAP reporter). The note with it: HEK-Blue cells overexpressing human TLR9; stimulated with ODN2006 5 nM; 22 hour incubation; SEAP readout. The procedure, abridged:
as §1

Molecules are shown by their SMILES.

As for `Cc1cc(C2CCN(C3CCN(CC4CC4)CC3)CC2)cn2cc(-c3ccc(S(C)(=O)=O)cc3)nc12` [Example 92, 6-(1′-(cyclopropylmethyl)-[1,4′-bipiperidin]-4-yl)-8-methyl-2-(4-(methylsulfonyl)phenyl)imidazo[1,2-a]pyridine], the figures for the 50% inhibitory concentration (IC50) against human TLR7, against human TLR8 and against human TLR9 were 3.5 µM, above 25 µM and 0.05 µM, respectively.
Regarding `COc1ccc(-c2cn3c(n2)CCC(C2CCN(C4CCN(CC5CC5)CC4)CC2)C3)cc1OC` (single isomer, unassigned) [Example 56, 6-(1′-(cyclopropylmethyl)-[1,4′-bipiperidin]-4-yl)-2-(3,4-dimethoxyphenyl)-5,6,7,8-tetrahydroimidazo[1,2-a]pyridine], the IC50 against human TLR7 was 3.8 µM; on human TLR8, above 50 µM; against human TLR9, 0.54 µM.
The corresponding values for `COc1ccc(-c2cn3cc(C4CCN(C5CC6(C5)CN(C(C)C)C6)CC4)cc(C)c3n2)cc1OC` [Example 13, 2-(3,4-dimethoxyphenyl)-6-(1-(2-isopropyl-2-azaspiro[3.3]heptan-6-yl)piperidin-4-yl)-8-methylimidazo[1,2-a]pyridine] are 47 µM, above 50 µM and 0.163 µM.
The corresponding values for `COc1ccc(-c2cn3cc(C4CCN(C5CC6CCC(C5)N6C(C)C)CC4)cc(C)c3n2)cc1OC` (single isomer, unassigned) [Example 22, 2-(3,4-dimethoxyphenyl)-6-(1-(8-isopropyl-8-azabicyclo[3.2.1]octan-3-yl)piperidin-4-yl)-8-methylimidazo[1,2-a]pyridine] are 1.2 µM, above 50 µM and 0.03 µM.
The corresponding values for `COc1ccc(-c2cn3c(n2)CC[C@@H](C2CCN(C4CC5CCC(C4)N5C(C)C)CC2)C3)cc1OC` (single isomer, unassigned) [Example 136] are 15.2 µM, above 25 µM and 0.078 µM.
In the case of `CS(=O)(=O)c1ccc(-c2cn3cc(C4CCN(C5CC6CCC(C5)N6CC5CC5)CC4)cc(F)c3n2)cc1` (single isomer, unassigned) [Example 116, 6-(1-(8-(cyclopropylmethyl)-8-azabicyclo[3.2.1]octan-3-yl)piperidin-4-yl)-8-fluoro-2-(4-(methylsulfonyl)phenyl)imidazo[1,2-a]pyridine], the concentration for half-maximal inhibition (IC50) at human TLR7 is 0.7 µM; on human TLR8, 14 µM; against human TLR9 it was 0.0039 µM.
The corresponding values for `COc1ccc(-c2cn3c(n2)CCC(C2CCN(C4CCN(C(=O)C5CC5)CC4)CC2)C3)cc1OC` (racemic) [Example 42, cyclopropyl(4-(2-(3,4-dimethoxyphenyl)-5,6,7,8-tetrahydroimidazo[1,2-a]pyridin-6-yl)-[1,4′-bipiperidin]-1′-yl)methanone] are 19 µM, above 50 µM and 0.08 µM.
With `COc1ccc(-c2cn3c(n2)CCC(C2CCN(C4CCN(C(C)C)CC4)CC2)C3)cc1OC` (single isomer, unassigned) [Example 35, 2-(3,4-dimethoxyphenyl)-6-(1′-isopropyl-[1,4′-bipiperidin]-4-yl)-5,6,7,8-tetrahydroimidazo[1,2-a]pyridine], the half-maximal inhibitory concentration (IC50) is 13 µM at human TLR7, above 50 µM against human TLR8 and 0.042 µM against human TLR9.
The corresponding values for `CS(=O)(=O)c1ccc(-c2cn3cc(C4CCN(C5CC6CCC(C5)N6C5COC5)CC4)cc(F)c3n2)cc1` (single isomer, unassigned) [Example 119, 8-fluoro-2-(4-(methylsulfonyl)phenyl)-6-(1-(8-(oxetan-3-yl)-8-azabicyclo[3.2.1]octan-3-yl)piperidin-4-yl)imidazo[1,2-a]pyridine] are 10.6 µM, above 50 µM and 0.03 µM.

A word on the IC50: it is the point on the concentration scale where inhibition reaches its midpoint. A higher IC50 goes with weaker potency in that assay.

The record behind these values is US12486267B2, “Imidazo[1,2-A]pyridine and [1,2,4]triazolo[1,5-A]pyridine derivatives as TLR9 inhibitors for the treatment of fibrosis” (BRISTOL-MYERS SQUIBB COMPANY, priority 2020, dated 2025).
